This note sets out measurements from PubChem BioAssay (NCI).

Test systems include CAKI-1 renal; A498 renal; T-47D breast; DU-145 prostate; IGROV1 ovarian; OVCAR-3 ovarian; SW-620 colon; HCC-2998 colon; SK-MEL-28 melanoma; HOP-92 NSCLC.
What all share (experiment): DTP human tumour cell line panel, 48 h

Structures are written as SMILES. Several values for one entry are separate records, joined by “and”; a condition that tells them apart may be missing. Identical values can stand only once.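 A five-concentration, 48-hour dose response in 96-well plates underlies each endpoint, interpolated linearly between surrounding concentrations. GI50 marks 50% less growth. TGI is the concentration that stops growth completely.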

In the case of `C=C(C)[C@@H]1CC[C@]2(COC3CCCCO3)CC[C@]3(C)[C@H](CC[C@@H]4[C@@]5(C)C=C(C=O)C(=O)C(C)(C)[C@@H]5CC[C@]43C)[C@@H]12` (some centres not stated), the GI50 in the assay with CAKI-1 renal was 1.34 µM; in the assay on A498 renal, 0.368 µM; with T-47D breast, 1.33 µM; in the assay on DU-145 prostate it was 1.57 µM; with IGROV1 ovarian, 2.13 µM; with OVCAR-3 ovarian, 1.14 µM. Also, the GI50 with SW-620 colon is 1.13 µM; in the assay on HCC-2998 colon it was 2.04 µM; in the assay on SK-MEL-28 melanoma it was 0.734 µM; in the assay with HOP-92 NSCLC it was 1.49 µM. Moreover, the TGI with CAKI-1 renal was 2.61 µM; in the assay on A498 renal it was 1.98 µM; with T-47D breast it was 3.01 µM; in the assay on DU-145 prostate, 2.92 µM; with IGROV1 ovarian, 4.56 µM; with OVCAR-3 ovarian, 2.49 µM. Besides, the TGI with SW-620 colon is 2.87 µM; in the assay on HCC-2998 colon, 4.2 µM; with SK-MEL-28 melanoma it was 2.2 µM; in the assay on HOP-92 NSCLC, 2.89 µM.
Take `COc1ccc(-c2cc(-c3cc(OC)c(OC)c(OC)c3)c(C#N)c(N3CCOCC3)n2)cc1O`: the GI50 in the assay on CAKI-1 renal is 0.866 µM; in the assay with A498 renal it was more than 21.4 µM; in the assay with T-47D breast, 25.4 µM; in the assay on DU-145 prostate, 5.3 µM; with IGROV1 ovarian, 19 µM; in the assay with OVCAR-3 ovarian it was 2.81 µM. Moreover, the GI50 with SW-620 colon is 3.87 µM; with HCC-2998 colon it was 29.2 µM; in the assay on SK-MEL-28 melanoma, more than 21.8 µM; in the assay with HOP-92 NSCLC, 5.67 µM. The TGI is more than 100 µM in the assay on CAKI-1 renal; more than 77.9 µM in the assay on A498 renal; more than 100 µM in the assay on T-47D breast; more than 100 µM in the assay with DU-145 prostate; more than 100 µM with IGROV1 ovarian; 8.33 µM with OVCAR-3 ovarian. The TGI in the assay on SW-620 colon was more than 100 µM; in the assay with HCC-2998 colon it was more than 100 µM; with SK-MEL-28 melanoma, more than 94.8 µM; with HOP-92 NSCLC, more than 100 µM.
As for `O=C(O)c1ccc2c(c1)nc(Nc1cccc(Cl)c1)c1ccncc12`, the GI50 in the assay on CAKI-1 renal was 1.31 µM and 1.96 µM; in the assay with A498 renal, 0.231 µM and 1.99 µM; with T-47D breast, 2.83 µM and 1.33 µM; in the assay with DU-145 prostate it was 4.92 µM and 6.02 µM; with IGROV1 ovarian, 3.56 µM and 2.68 µM; in the assay with OVCAR-3 ovarian it was 1.2 µM and 1.68 µM. The GI50 in the assay on SW-620 colon was 3.1 µM and 3.97 µM; in the assay with HCC-2998 colon, 2.53 µM and 4.02 µM; in the assay with SK-MEL-28 melanoma, 3.12 µM and 3.2 µM; with HOP-92 NSCLC, 0.325 µM and 0.445 µM. In addition, the concentration for total growth inhibition (TGI) with CAKI-1 renal was 5.73 µM and 7.22 µM; in the assay with A498 renal, 2.46 µM and 6.66 µM; in the assay with T-47D breast it was > 39.1 µM and 5.71 µM; in the assay on DU-145 prostate, 47.3 µM and > 10 µM; with OVCAR-3 ovarian, 4.15 µM and > 10 µM; with SW-620 colon it was 26.5 µM and > 10 µM. Besides, the total growth inhibition concentration (TGI) in the assay with HCC-2998 colon was 15.1 µM and > 10 µM; in the assay with SK-MEL-28 melanoma, 21.9 µM and > 10 µM; with HOP-92 NSCLC it was 3.77 µM and 4.06 µM.
Regarding `CN(C[C@@H]1COCCO1)S(=O)(=O)Nc1ccc2ccc3ncc(-c4cnn(C)c4)cc3c(=O)c2c1`, the GI50 was 1.94 µM in the assay on CAKI-1 renal; 0.447 µM with A498 renal; 5.54 µM in the assay on T-47D breast; 6.86 µM in the assay with DU-145 prostate; 2.5 µM with IGROV1 ovarian; 11.8 µM with OVCAR-3 ovarian. The GI50 in the assay on SW-620 colon was 4.74 µM; in the assay on HCC-2998 colon it was 59.6 µM; in the assay on SK-MEL-28 melanoma, more than 66.8 µM; in the assay with HOP-92 NSCLC it was 2.25 µM. Further, the concentration for total growth inhibition (TGI) in the assay on CAKI-1 renal is more than 27.4 µM; in the assay with A498 renal, 2.18 µM; in the assay on T-47D breast, more than 100 µM; in the assay on DU-145 prostate, more than 100 µM; with IGROV1 ovarian, more than 100 µM; in the assay on OVCAR-3 ovarian, more than 100 µM. In addition, the TGI in the assay with SW-620 colon is more than 100 µM; in the assay on HCC-2998 colon, more than 100 µM; with SK-MEL-28 melanoma, more than 100 µM; in the assay on HOP-92 NSCLC, more than 30.3 µM.
Turning to `NC(=O)/C=C/NC(=O)/C=N\O`, the TGI with CAKI-1 renal, with A498 renal, with T-47D breast, with DU-145 prostate, with IGROV1 ovarian and in the assay on OVCAR-3 ovarian was more than 100 µM each time. The total growth inhibition concentration (TGI) in the assay with SW-620 colon, in the assay on HCC-2998 colon, in the assay with SK-MEL-28 melanoma and with HOP-92 NSCLC was more than 100 µM in each case.
Take `O=C(O)C1(Cc2cccc(Nc3nccs3)n2)CCC(Oc2cccc(Cl)c2F)CC1` (configuration not stated): the GI50 with CAKI-1 renal was 12.4 µM; in the assay on A498 renal it was 3.95 µM; in the assay on T-47D breast, 15.8 µM; with DU-145 prostate, 14.4 µM; with IGROV1 ovarian it was 15.9 µM; in the assay on OVCAR-3 ovarian it was 13.3 µM. The GI50 is 4.31 µM in the assay with SW-620 colon, 18.2 µM in the assay on HCC-2998 colon, 21.2 µM in the assay with SK-MEL-28 melanoma and 13 µM with HOP-92 NSCLC. In addition, the TGI in the assay with CAKI-1 renal was 38.8 µM; with A498 renal, 19.4 µM; with T-47D breast, more than 100 µM; in the assay with DU-145 prostate, 32.3 µM; in the assay on IGROV1 ovarian, 53.1 µM; in the assay on OVCAR-3 ovarian, 36.4 µM. For the same compound, the TGI in the assay with SW-620 colon was more than 58.9 µM; with HCC-2998 colon, 34.2 µM; in the assay on SK-MEL-28 melanoma, more than 65.2 µM; in the assay on HOP-92 NSCLC it was 44.7 µM.
As to `C[C@H]1C(Oc2ccc(O)cc2)OC2OC3(C)CCC4[C@H](C)CCC1C24OO3` (some centres not stated), the GI50 is 18.5 µM in the assay with CAKI-1 renal; 16.7 µM with A498 renal; 2.1 µM with T-47D breast; 20.1 µM in the assay on DU-145 prostate; 16.7 µM in the assay on IGROV1 ovarian; 6.12 µM with OVCAR-3 ovarian. For the same compound, the GI50 with SW-620 colon was 8.74 µM; with SK-MEL-28 melanoma it was 18.4 µM; in the assay on HOP-92 NSCLC, 11.5 µM. In addition, the TGI in the assay on CAKI-1 renal is 40.8 µM; in the assay with A498 renal it was 31.2 µM; with T-47D breast it was 26.9 µM; in the assay with DU-145 prostate it was 43.2 µM; in the assay with IGROV1 ovarian, 32.5 µM; in the assay on OVCAR-3 ovarian it was 32.8 µM. The total growth inhibition concentration (TGI) worked out at 43.2 µM with SW-620 colon, 39.5 µM in the assay with SK-MEL-28 melanoma and 25 µM in the assay on HOP-92 NSCLC.
Turning to `O=[N+]([O-])c1ccc2ncccc2c1Cl`, the GI50 is 1.69 µM in the assay on CAKI-1 renal; 10.8 µM in the assay with A498 renal; 11.2 µM with T-47D breast; 3.4 µM in the assay with DU-145 prostate; 3.89 µM in the assay with IGROV1 ovarian; 2.77 µM with OVCAR-3 ovarian. For the same compound, the GI50 with SW-620 colon is 0.627 µM; in the assay with HCC-2998 colon, 3.67 µM; in the assay with SK-MEL-28 melanoma, 6.29 µM; in the assay with HOP-92 NSCLC, 6.57 µM. In addition, the TGI turned out to be 3.45 µM in the assay with CAKI-1 renal; 31.3 µM in the assay on A498 renal; 42.1 µM with T-47D breast; 10.2 µM in the assay with DU-145 prostate; 13.8 µM in the assay on IGROV1 ovarian; 6.99 µM in the assay with OVCAR-3 ovarian. Also, the total growth inhibition concentration (TGI) with SW-620 colon came out at 16 µM; in the assay on HCC-2998 colon, 14.2 µM; with SK-MEL-28 melanoma it was 20.8 µM; in the assay on HOP-92 NSCLC it was 24.6 µM.
